Laboratory results from PMC11588130 (Proceedings of the National Academy of Sciences of the …, 2024).

Molecular target: T1, human FXR (cotransfected with RXR) (Homo sapiens, UniProt Q96RI1)
T1 sequence (Q96RI1 1-486): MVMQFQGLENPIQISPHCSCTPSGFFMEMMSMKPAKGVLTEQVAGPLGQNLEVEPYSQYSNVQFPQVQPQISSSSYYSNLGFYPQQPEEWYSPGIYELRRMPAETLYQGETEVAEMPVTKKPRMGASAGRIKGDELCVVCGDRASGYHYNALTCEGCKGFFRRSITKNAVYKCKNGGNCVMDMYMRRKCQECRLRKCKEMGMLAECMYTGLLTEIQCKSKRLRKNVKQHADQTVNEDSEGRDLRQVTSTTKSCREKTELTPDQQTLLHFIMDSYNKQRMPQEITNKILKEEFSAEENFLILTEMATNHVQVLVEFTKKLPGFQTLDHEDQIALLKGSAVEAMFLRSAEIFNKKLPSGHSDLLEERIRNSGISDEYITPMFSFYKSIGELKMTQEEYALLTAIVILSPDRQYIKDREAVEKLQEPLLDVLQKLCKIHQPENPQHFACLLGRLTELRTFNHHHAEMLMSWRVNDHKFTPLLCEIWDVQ
T1 sequence (P19793 1-462 partner): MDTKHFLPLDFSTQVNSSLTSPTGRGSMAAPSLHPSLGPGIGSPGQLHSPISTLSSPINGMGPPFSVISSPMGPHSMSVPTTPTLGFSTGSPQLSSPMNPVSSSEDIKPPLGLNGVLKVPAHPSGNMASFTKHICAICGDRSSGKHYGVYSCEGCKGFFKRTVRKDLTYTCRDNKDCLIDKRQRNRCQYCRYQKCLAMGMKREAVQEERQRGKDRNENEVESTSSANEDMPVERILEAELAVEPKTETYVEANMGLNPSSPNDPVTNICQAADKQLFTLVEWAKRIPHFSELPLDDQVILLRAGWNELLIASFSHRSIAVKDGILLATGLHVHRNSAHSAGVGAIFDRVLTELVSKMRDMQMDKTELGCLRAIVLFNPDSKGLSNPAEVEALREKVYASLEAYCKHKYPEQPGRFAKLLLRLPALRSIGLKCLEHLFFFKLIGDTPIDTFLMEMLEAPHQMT
Assay: FXRE-luciferase reporter in HEK293
Type: cell-based

C[C@H](CCC(=O)O)[C@H]1CC[C@H]2[C@@H]3C(=O)C[C@@H]4C[C@H](O)CC[C@]4(C)[C@H]3C[C@H](O)[C@]12C [7-oxo-DCA]
IC50: 13.8 µM
